# Assay results published in patent US9939427B2, “Method for evaluating the scent performance of perfumes or perfume mixtures” (Symrise AG, priority 2013, dated 2018).
# Target: T1, OR10Q1 (Homo sapiens, UniProt Q8NGQ4)
# T1 construct: specific primers, which amplify the complete open reading frame; expressed in transfected cells; host or cells: HEK293
# T1 sequence (Q8NGQ4 1-319): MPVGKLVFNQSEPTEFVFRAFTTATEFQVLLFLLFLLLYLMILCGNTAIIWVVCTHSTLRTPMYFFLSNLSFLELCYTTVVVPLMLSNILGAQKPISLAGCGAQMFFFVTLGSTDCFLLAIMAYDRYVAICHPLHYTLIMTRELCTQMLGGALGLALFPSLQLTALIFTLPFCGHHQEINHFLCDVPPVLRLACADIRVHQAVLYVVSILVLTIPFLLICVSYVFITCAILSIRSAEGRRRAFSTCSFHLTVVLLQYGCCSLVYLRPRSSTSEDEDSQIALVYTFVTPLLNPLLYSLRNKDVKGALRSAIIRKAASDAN
# Assay: CRE-luciferase assay, OR10Q1 in HANA3A cells
# Type: cell-based
# Conditions: 50 μM, 100 μM, 150 μM, 200 μM and 250 μM; ratio of firefly to renila
# Procedure: Calcium cations and phosphate anions created crystal precipitations coupled with DNA which could invade into the cells through endocytosis. Cells were transiently transfected with plasmid DNA which consists of pCI expression vector and PCR-amplified full-length cDNA of olfactory receptors candidates, and also Gα15, RTP1, Myr-Ric8A, HSC70, and m-Cherry as cofactors. The precipitation could be created after 15-20 min, with dropping the transfection solution on HEK293 cells. Before measuring by Ca-imaging cells were incubated 48-60 hours at 370 C, 5% CO2. Cationic liposome-mediated transfection method was applied to transfect DNA plasmid transiently in HANA3A cells in case of CRE-Luciferase and CRE-SEAP assays. […]
# ORs responded by Ca-imaging with seven separate odorant mixtures formed from 66 odorants. […] Transfected HANA3A cells on poly-D-lysine-coated 96 well plates are ready for stimulation after 24 h. […] Measuring by plate reader (Luminometer). • 6. […] Measuring by plate reader (Luminometer). • 8. According to manufacturer's protocols for measuring luciferase and renilla activities, calculate normalized luciferase activity with using the formula (Ln-Lmin)/(Lmax-Lmin), where Ln is the luminescence of firefly in response to the odorant, L min is the minimum luciferase value on a plate, and L max is the maximum luciferase value on plate. […]
smiles,measurement,value
"O=C1CCCCCCCCCCCCCCO1 [Pentadecanolide, ω-cyclopentadecanolide]",CRE-luciferase (cAMP assay) response of OR10Q1,positive responses
